# From PMC12735872, “Development of ^18F/^11C-Labeled Pyrrolo-Pyridine/Pyrimidine LRRK2 Selective PET Radioligands” (Pharmaceuticals, 2025)
# Where two headings read alike, the source gives them in different places.
# Columns and labels:
# [1] = Free fraction in brain homogenate (fb); type: in vitro ADME; settings: method ref. 18
# Source text: (§1) Table 1 LRRK2 wild-type (WT) and G2019S Lanthascreen, MDR1-MDCK permeability (Papp A:B), and efflux ratio (B:A/A:B), free fractions in plasma (fp) and brain homogenate (fb) and PET Multi-Parameter Optimization (MPO) score of Compounds 1, 2, and 3. | column: fb ^3 (%)
# [2] = biological target: T1, LRRK2 (Homo sapiens, UniProt Q5S007); test: In vitro autoradiography, human whole-hemisphere brain slices; type: binding; settings: human brain slices; cold compound 10 µM
# T1 construct: Human brains without pathological findings were acquired from the National Institute of Forensic Medicine; from tissue; host or cells: human post-mortem control brain, whole-hemisphere sections (100 µm)
# Method: Human brains without pathological findings were acquired from the National Institute of Forensic Medicine at Karolinska Institutet in Stockholm, Sweden. These brains were obtained during forensic autopsies (designated as control brain) and were processed in a manner like previously described methods. […] The brain was removed, and its tissues were kept in −85 °C until the sectioning process. The whole brain hemispheric slices were subsequently maintained at −25 °C until the commencement of autoradiography procedures. […] The sectioning of the brain and the autoradiography experiments were performed at the Psychiatry section, Department of Neuroscience, Karolinska Institutet, Sweden.
# (§2) Whole brain hemispheres were sectioned into horizontal slices with a thickness of 100 µm using a Leica cryomacrocut system. The autoradiographic procedures followed the same protocols established in previous studies conducted in our laboratory. The whole-hemisphere sections of 100 micron thickness were incubated for 90 min at room temperature with their corresponding radiotracer (4 MBq/200 mL) in TRIS buffer (pH 7.4) containing sodium chloride (120 mM), potassium chloride (5 mM), calcium chloride (2 mM), and albumin (0.1% w/v). After incubation, sections were washed three times in the same buffer at room temperature for five minutes each, briefly dipped in ice-cold distilled water, dried, and then placed in the phosphor imaging plates. Binding density standards were prepared by serial dilution of the radioligand stock solution in the assay buffer. Readings were taken with the Fujifilm BAS-5000 (Fujifilm, Tokyo, Japan), while quantitative analysis was conducted with the Multi Gauge 3.2 image analysis software (Fujifilm, Tokyo, Japan). For blocking experiments, adjacent brain sections were co-incubated with LuAF66583 (0.1 µM or 10 µM).
# [3] = biological target: LRRK2 G2019S (Homo sapiens, UniProt Q5S007, G2019S); test: LRRK2 G2019S Lanthascreen; type: biochemical
# [4] = Free fraction in plasma (fp); type: in vitro ADME; settings: method ref. 18
# Source text: Table 1 LRRK2 wild-type (WT) and G2019S Lanthascreen, MDR1-MDCK permeability (Papp A:B), and efflux ratio (B:A/A:B), free fractions in plasma (fp) and brain homogenate (fb) and PET Multi-Parameter Optimization (MPO) score of Compounds 1, 2, and 3. | column: fp ^3 (%)
# [5] = test system: MDR1 (P-gp); test: MDR1-MDCK permeability and efflux ratio; type: in vitro ADME; settings: dog, assay described in ref. 17; for Papp A→B: MDCK-MDR1; for efflux ratio: MDR1-MDCK, read-out: B:A/A:B (efflux ratio)
# Source text: as §1, with “Papp A:B ^2 (MDR1-MDCK) (cm/s × 10^−6); B:A/A:B ^2” for “fb ^3 (%)”
# [6] = biological target: LRRK2 wild-type (WT) (Homo sapiens, UniProt Q5S007); test: LRRK2 wild-type Lanthascreen; type: biochemical
# [7] = test system: LRRK2; test: In vitro autoradiography, NHP brain slices; type: binding; settings: cold compound 10 µM
# Method: as §2, with “µM). […] The thickness differed from human tissue (20 µm).” for “µM).”
# T1 sequence (Q5S007 whole entry): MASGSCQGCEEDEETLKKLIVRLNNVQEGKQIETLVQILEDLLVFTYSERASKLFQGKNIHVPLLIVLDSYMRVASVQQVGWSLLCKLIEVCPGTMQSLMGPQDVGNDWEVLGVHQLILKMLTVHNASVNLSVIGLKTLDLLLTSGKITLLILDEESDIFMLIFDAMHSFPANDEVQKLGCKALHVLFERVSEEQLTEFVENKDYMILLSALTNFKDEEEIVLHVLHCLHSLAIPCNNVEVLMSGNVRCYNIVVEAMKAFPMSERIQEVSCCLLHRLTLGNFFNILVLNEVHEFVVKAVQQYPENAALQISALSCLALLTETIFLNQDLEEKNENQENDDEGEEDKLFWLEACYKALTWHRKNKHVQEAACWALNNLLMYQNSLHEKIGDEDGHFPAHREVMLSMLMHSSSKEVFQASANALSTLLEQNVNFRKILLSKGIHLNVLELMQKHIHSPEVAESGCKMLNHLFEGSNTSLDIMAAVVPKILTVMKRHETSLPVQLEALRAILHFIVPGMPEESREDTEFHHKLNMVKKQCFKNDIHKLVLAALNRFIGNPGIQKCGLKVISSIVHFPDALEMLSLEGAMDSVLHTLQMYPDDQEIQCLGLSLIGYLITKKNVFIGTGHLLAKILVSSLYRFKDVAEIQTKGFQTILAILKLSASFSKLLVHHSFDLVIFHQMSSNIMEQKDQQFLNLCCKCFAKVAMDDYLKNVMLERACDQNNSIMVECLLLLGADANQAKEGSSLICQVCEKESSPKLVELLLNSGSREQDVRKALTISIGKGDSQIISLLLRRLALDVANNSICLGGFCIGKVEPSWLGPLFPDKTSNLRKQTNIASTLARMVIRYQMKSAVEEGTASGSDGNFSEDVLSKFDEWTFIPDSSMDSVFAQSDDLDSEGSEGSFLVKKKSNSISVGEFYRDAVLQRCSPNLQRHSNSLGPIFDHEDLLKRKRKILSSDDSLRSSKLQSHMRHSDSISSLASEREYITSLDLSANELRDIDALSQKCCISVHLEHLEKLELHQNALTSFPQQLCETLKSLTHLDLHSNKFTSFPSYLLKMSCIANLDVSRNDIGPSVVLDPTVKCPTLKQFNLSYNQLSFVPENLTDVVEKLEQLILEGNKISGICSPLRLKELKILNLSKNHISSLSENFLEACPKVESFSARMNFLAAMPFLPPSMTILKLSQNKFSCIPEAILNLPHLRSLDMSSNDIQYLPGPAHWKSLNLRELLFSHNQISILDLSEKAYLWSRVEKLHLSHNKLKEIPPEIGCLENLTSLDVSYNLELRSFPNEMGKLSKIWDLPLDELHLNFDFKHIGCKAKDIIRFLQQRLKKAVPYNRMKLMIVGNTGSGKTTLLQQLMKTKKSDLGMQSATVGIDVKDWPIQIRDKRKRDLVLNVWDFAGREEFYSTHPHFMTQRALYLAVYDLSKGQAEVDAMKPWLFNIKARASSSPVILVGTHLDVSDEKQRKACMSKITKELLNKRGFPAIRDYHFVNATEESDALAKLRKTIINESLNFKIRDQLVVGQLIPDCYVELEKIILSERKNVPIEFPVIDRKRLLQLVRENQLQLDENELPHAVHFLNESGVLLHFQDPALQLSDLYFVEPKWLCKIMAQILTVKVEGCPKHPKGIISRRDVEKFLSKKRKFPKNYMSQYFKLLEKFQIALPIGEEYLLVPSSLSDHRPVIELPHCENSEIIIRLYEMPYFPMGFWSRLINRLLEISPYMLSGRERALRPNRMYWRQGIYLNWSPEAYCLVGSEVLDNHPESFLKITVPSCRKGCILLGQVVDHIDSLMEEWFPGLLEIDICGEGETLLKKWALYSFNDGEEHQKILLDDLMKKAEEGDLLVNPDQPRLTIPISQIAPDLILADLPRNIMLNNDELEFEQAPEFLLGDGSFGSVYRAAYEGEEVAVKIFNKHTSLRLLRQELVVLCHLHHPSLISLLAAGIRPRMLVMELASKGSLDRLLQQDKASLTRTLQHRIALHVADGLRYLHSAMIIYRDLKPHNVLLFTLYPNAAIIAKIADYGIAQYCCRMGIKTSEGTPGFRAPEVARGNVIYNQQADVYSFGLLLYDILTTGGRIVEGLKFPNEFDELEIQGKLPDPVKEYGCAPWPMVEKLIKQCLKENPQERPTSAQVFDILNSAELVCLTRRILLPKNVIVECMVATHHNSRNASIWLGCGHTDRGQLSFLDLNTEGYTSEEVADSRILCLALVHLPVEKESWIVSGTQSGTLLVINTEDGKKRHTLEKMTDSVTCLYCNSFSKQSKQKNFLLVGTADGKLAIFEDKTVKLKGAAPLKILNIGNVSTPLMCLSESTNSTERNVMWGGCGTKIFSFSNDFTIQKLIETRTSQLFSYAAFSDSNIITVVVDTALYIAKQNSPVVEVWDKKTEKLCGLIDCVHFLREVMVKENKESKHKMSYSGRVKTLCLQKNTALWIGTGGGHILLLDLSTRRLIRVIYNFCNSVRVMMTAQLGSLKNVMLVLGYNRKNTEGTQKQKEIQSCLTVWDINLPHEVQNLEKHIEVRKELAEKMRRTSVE
# Chain of LRRK2 wild-type (WT) (Q5S007 whole entry): as above
# Chain of LRRK2 G2019S (Q5S007 whole entry G2019S): as the sequence (Q5S007 whole entry) above, with G2019S counted along it
fraction unbound [1],Blocking of [^18F]1 binding (ARG) [2],"Ki ([3]; assay described in ref. 16, read-out: LRRK2 Lanthascreen G2019S cKi) [nM]",fraction unbound [4],Papp A→B [5] [×10⁻⁶ cm/s],efflux ratio [5],"Ki ([6]; assay described in ref. 16, read-out: LRRK2 Lanthascreen WT cKi) [nM]",Blocking of [^18F]1 binding (ARG) [7],Ki [3] [nM],Ki [6] [nM],Compound
0.13,effectively blocked,1,0.38,31,0.66,0.7,effectively blocked,–,–,"C[C@@H]1C[C@@H](F)CN1c1c(C#N)c2c(N)nccc2n1C [Compound 1, 4-Amino-2-((2R,4R)-4-fluoro-2-methylpyrrolidin-1-yl)-1-methyl-1H-pyrrolo[3,2-c]pyridine-3-carbonitrile]"
0.012,effectively blocked,–,0.04,17,0.8,–,effectively blocked,0.28,0.14,"C[C@@H]1CCCN1c1c(C#N)c2c(N)nc(Nc3cnn(C)c3)nc2n1C [Compound 3, (R)-4-amino-7-methyl-2-((1-methyl-1H-pyrazol-4-yl)amino)-6-(2-methylpyrrolidin-1-yl)-7H-pyrrolo[2,3-d]pyrimidine-5-carbonitrile]"
